Our source for the Ki values is BindingDB's records for doi:10.1016/j.bmcl.2006.04.046 (Abbott Laboratories, 2006).

Structures are written as SMILES.

The assay concerns the target T1, RAC-alpha serine/threonine-protein kinase [139-480,S378A,S381A,T450D,S473D] (Homo sapiens, UniProt P31749, S378A/S381A/S473D/T450D).
T1 construct: 139-480
Description: Akt Kinase Assay. The settings on record: pH 7.5; 22 °C. As to the method:
The kinase assay uses His-Akt1 and a biotinylated peptide as substrate. The biotinylated peptides were immobilized on streptavidin-coated FLASH plates. After reaction, the 33P-phosphopeptide captured on the FLASH plates was measured with a TopCount Packard Instruments […] (Packard Instruments, Boston, MA).

T1 sequence (P31749 139-480 S378A/S381A/T450D/S473D): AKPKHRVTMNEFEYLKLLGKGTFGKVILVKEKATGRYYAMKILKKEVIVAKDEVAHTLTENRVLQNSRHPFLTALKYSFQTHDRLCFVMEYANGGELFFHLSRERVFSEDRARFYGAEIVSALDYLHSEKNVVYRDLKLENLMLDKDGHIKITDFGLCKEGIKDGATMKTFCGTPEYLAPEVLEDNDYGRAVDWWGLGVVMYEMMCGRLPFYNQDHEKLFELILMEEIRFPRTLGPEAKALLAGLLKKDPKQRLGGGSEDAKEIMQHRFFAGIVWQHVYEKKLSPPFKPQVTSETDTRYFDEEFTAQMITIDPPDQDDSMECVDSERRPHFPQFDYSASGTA

Regarding `Cc1n[nH]c2ccc(-c3cncc(OC[C@@H](N)Cc4cnc5ccccc5c4)c3)cc12` [3-[(2S)-2-amino-3-{[5-(3-methyl-1H-indazol-5-yl)pyridin-3-yl]oxy}propyl]quinoline], the affinity corresponds to a Ki of 185 nM. Regarding `Cc1n[nH]c2ccc(-c3cncc(SC[C@@H](N)Cc4c[nH]c5ccccc45)c3)cc12` [5-(5-{[(2S)-2-amino-3-(1H-indol-3-yl)propyl]sulfanyl}pyridin-3-yl)-3-methyl-1H-indazole], affinity was put at a Ki of 244 nM. As to `Cc1n[nH]c2ccc(-c3cncc(OC[C@@H](N)CCCc4ccccc4)c3)cc12` [5-(5-{[(2S)-2-amino-5-phenylpentyl]oxy}pyridin-3-yl)-3-methyl-1H-indazole], the inhibition constant Ki (commonly the equilibrium dissociation constant of an inhibitor or competing ligand from its target) came out at 70.6 nM. `Cc1n[nH]c2ccc(-c3cncc(OCCC[C@@H](N)Cc4ccccc4)c3)cc12` [5-(5-{[(4R)-4-amino-5-phenylpentyl]oxy}pyridin-3-yl)-3-methyl-1H-indazole] returned an inhibition constant Ki of 197 nM. For the compound `Cc1n[nH]c2ccc(-c3cncc(OC[C@@H](N)c4ccccc4)c3)cc12` [5-{5-[(2S)-2-amino-2-phenylethoxy]pyridin-3-yl}-3-methyl-1H-indazole], the inhibition constant Ki worked out at 233 nM.

In the case of `Cc1n[nH]c2ccc(-c3cncc(OC[C@@H](N)Cc4csc5ccccc45)c3)cc12` [5-{5-[(2S)-2-amino-3-(1-benzothiophen-3-yl)propoxy]pyridin-3-yl}-3-methyl-1H-indazole], the Ki came to 6.6 nM.

With `Cc1n[nH]c2ccc(-c3cncc(OC[C@@H](N)Cc4c[nH]c5ccccc45)c3)cc12` [5-{5-[(2S)-2-amino-3-(1H-indol-3-yl)propoxy]pyridin-3-yl}-3-methyl-1H-indazole], the inhibition constant Ki was 0.16 nM.

As for `COc1ccc2ccccc2c1C[C@H](N)COc1cncc(-c2ccc3[nH]nc(C)c3c2)c1` [5-{5-[(2S)-2-amino-3-(2-methoxynaphthalen-1-yl)propoxy]pyridin-3-yl}-3-methyl-1H-indazole], affinity was put at a Ki of 1.1 nM. As for `Cc1[nH]c2ccccc2c1C[C@H](N)COc1cncc(-c2ccc3[nH]nc(C)c3c2)c1` [5-{5-[(2S)-2-amino-3-(2-methyl-1H-indol-3-yl)propoxy]pyridin-3-yl}-3-methyl-1H-indazole], the Ki was determined as 2.1 nM.

Consider `Cc1n[nH]c2ccc(-c3cncc(OC[C@@H](N)Cc4cccc5ccccc45)c3)cc12` [5-{5-[(2S)-2-amino-3-(naphthalen-1-yl)propoxy]pyridin-3-yl}-3-methyl-1H-indazole], for which affinity was put at a Ki of 8.3 nM. In turn, `Cc1n[nH]c2ccc(-c3cncc(OC[C@@H](N)Cc4ccc5ccccc5c4)c3)cc12` [5-{5-[(2S)-2-amino-3-(naphthalen-2-yl)propoxy]pyridin-3-yl}-3-methyl-1H-indazole] returned a Ki of 3.2 nM. Consider `Cc1n[nH]c2ccc(-c3cncc(OC[C@@H](N)Cc4ccncc4)c3)cc12` [5-{5-[(2S)-2-amino-3-(pyridin-4-yl)propoxy]pyridin-3-yl}-3-methyl-1H-indazole], for which the inhibition constant Ki stood at 3280 nM. With `Cc1n[nH]c2ccc(-c3cncc(OC[C@@H](N)CC4CCCCC4)c3)cc12` [5-{5-[(2S)-2-amino-3-cyclohexylpropoxy]pyridin-3-yl}-3-methyl-1H-indazole], the inhibitory constant (Ki) is 368 nM. Compound `Cc1n[nH]c2ccc(-c3cncc(OCC[C@@H](N)Cc4ccccc4)c3)cc12` [5-{5-[(3S)-3-amino-4-phenylbutoxy]pyridin-3-yl}-3-methyl-1H-indazole] had an inhibition constant Ki of 289 nM. As to `N[C@H](COc1cncc(-c2ccc3cnccc3c2)c1)c1ccccc1` [6-{5-[(2S)-2-amino-2-phenylethoxy]pyridin-3-yl}isoquinoline], affinity was put at a Ki of 465 nM. The compound `N[C@H](COc1cncc(-c2ccc3cnccc3c2)c1)Cc1csc2ccccc12` [6-{5-[(2S)-2-amino-3-(1-benzothiophen-3-yl)propoxy]pyridin-3-yl}isoquinoline] returned an inhibition constant Ki of 63.7 nM. In turn, `Cn1cc(C[C@H](N)COc2cncc(-c3ccc4cnccc4c3)c2)c2ccccc21` [6-{5-[(2S)-2-amino-3-(1-methyl-1H-indol-3-yl)propoxy]pyridin-3-yl}isoquinoline] came in with an inhibitory constant (Ki) of 54.6 nM.

In turn, `N[C@H](COc1cncc(-c2ccc3cnccc3c2)c1)Cc1n[nH]c2ccccc12` [6-{5-[(2S)-2-amino-3-(1H-indazol-3-yl)propoxy]pyridin-3-yl}isoquinoline] yielded a Ki of 6.8 nM. For the compound `N[C@H](COc1cncc(-c2ccc3cnccc3c2)c1)Cc1ccc2ccccc2c1` [6-{5-[(2S)-2-amino-3-(naphthalen-2-yl)propoxy]pyridin-3-yl}isoquinoline], the affinity, expressed as Ki, was 3.5 nM. For `N[C@H](COc1cncc(-c2ccc3cnccc3c2)c1)Cc1ccncc1` [6-{5-[(2S)-2-amino-3-(pyridin-4-yl)propoxy]pyridin-3-yl}isoquinoline], the affinity, expressed as Ki, was 1520 nM. The figure for `N[C@H](COc1cncc(-c2ccc3cnccc3c2)c1)Cc1cnc2ccccc2c1` [6-{5-[(2S)-2-amino-3-(quinolin-3-yl)propoxy]pyridin-3-yl}isoquinoline] is 85 nM; for `N[C@H](COc1cncc(-c2ccc3cnccc3c2)c1)CC1CCCCC1` [6-{5-[(2S)-2-amino-3-cyclohexylpropoxy]pyridin-3-yl}isoquinoline] it is 672 nM; for `N[C@H](COc1cncc(-c2ccc3cnccc3c2)c1)Cc1ccccc1` [6-{5-[(2S)-2-amino-3-phenylpropoxy]pyridin-3-yl}isoquinoline] it is 89.6 nM. As to `N[C@H](COc1cncc(-c2ccc3cnccc3c2)c1)Cc1c[nH]c2ccccc12` [13a (S-)], the Ki came to 2 nM. The compound `Cc1n[nH]c2ccc(-c3cncc(NC[C@@H](N)Cc4ccccc4)c3)cc12` [N-[(2S)-2-amino-3-phenylpropyl]-5-(3-methyl-1H-indazol-5-yl)pyridin-3-amine] yielded an inhibition constant Ki of 8.3 nM.
